The test system of assay [1] is renal injury markers (Kim-1, Ngal), inflammatory factors (MCP-1, TNF-α). Kind of assay: Diabetic nephropathy (DKD) mice: Q-PCR of kidney tissue. In kind it is in vivo, C57/BL6J mice. The conditions noted are these: kidney mRNA, gavage 10 mg/kg. On the procedure: Production license number: SCXK(Su)2023-0009. […] Animals were acclimated for 7 days before use in experiments.
Administer streptozotocin (STZ, 50 mg/kg) via intraperitoneal injection for 5 consecutive days. After 72 hours, select mice with fasting blood glucose levels exceeding 16.7 mmol/L as model mice. […] Model mice were fed a high-fat diet (HFD) providing 60% of energy from fat for 8 weeks. After 8 weeks, gavage administration commenced.
Specimen Collection: One hour after the last drug administration, enucleate the eyeball to collect blood. Allow blood to stand at room temperature for 2 hours, then centrifuge at 3000 rpm for 20 minutes. Aspirate the serum, aliquot it, and store at -70 °C for future use. After blood collection, euthanize the mice by cervical dislocation. Open the abdominal cavity, remove the kidneys, and dissect away the perirenal fat and capsule. Store the tissue at -70 °C for future use.
Additional primer information is as follows: Table 24. Additional Information on Q-PCR Primers

A further assay deals with MDSCs and T cells. Kind of assay: T cell proliferation in a co-culture model of MDSCs and T cells (flow cytometry). In kind it is cell-based, mice. Particulars: MDSCs treated with 1 µM compound for 12 h, 48 h co-culture with T cells (1:1), compared to the control group.

The structures appear in SMILES notation.

Regarding `CN(C)C[C@@H]1C(=O)O[C@H]2[C@H]1CC[C@@]1(C)C[C@]13CC[C@@](C)(O)[C@H]23` [compound 20], in assay [1], the Kim-1 is recorded as 0.64±0.10, the Mcp-1 worked out at 1.40±0.22, the Ngal is given as 0.96±0.13 and the Tnf-α was 0.96±0.13. Besides, the “T-cell proliferation rate (%)” value with MDSCs and T cells was “+ (T-cell proliferation rate within the 0-20% range compared to the control group)”.

Values taken from patent EP4813381A1, “PHARMACEUTICAL USE OF GUAIANE SESQUITERPENE DERIVATIVE” (Nanjing University Of Chinese Medicine, priority 2023, dated 2025).
